From US10576056B2, “Compounds for treating cancer and methods of use thereof” (MCMASTER UNIVERSITY, priority 2015, dated 2020)
Like-named read-outs stand apart in the source and are kept apart here.

Assays:
Type in all cases: cell-based
MD-MB-231 cells = experiment: MTT proliferation assay, MD-MB-231 breast cancer cells; conditions: for effect on proliferation of MD-MB-231 cells: increasing concentrations, 24 and 48 hours, 10% charcoal-stripped phenol-free serum, dose dependent
Procedure: (§1) First, the role of THs on breast cancer cell proliferation was evaluated using escalating doses of tri-iodothyronine (T3) and thyroxine (T4). […] In particular, the compound of Formula (I) or compound of Formula (Ia) is dronedarone. Dronedarone was selected as it is an FDA approved anti-arrhythmic drug.
(§2) The effect of increasing concentrations of T3 and T4 on the proliferation of 3 breast cancer cell lines (MCF 7, MD-MB-231, BT-474) in 10% charcoal-stripped phenol-free serum was evaluated at 24 and 48 hours following standard MTT-assay protocols. Increasing doses of PTU and dronedarone were added to cells with 200 μM T3 or T4 to measure proliferation of MCF-7 and MD-MB-231 cells using MTT assays.

MCF7 cells = experiment: MTT proliferation assay, MCF7 breast cancer cells; conditions: for IC50: Homo sapiens; for IC50 / effect on proliferation: MCF7 cells; for effect on proliferation of MCF7 cells: increasing concentrations, 24 and 48 hours, 10% charcoal-stripped phenol-free serum, dose dependent
Procedure: as §1, §2

BT-474 cells = experiment: MTT proliferation assay, BT-474 breast cancer cells; conditions: increasing concentrations, 24 and 48 hours, 10% charcoal-stripped phenol-free serum, dose dependent
Procedure: as §1, §2

CCCc1cc(=O)[nH]c(=S)[nH]1 [PTU, propylthiouracil]
IC50 (MD-MB-231 cells; Homo sapiens, PTU alone, without T3/T4 (FIG. 11: MDA-MB-231 cells, 24 hours), read-out: concentration reducing cell proliferation by 50%): > 12 µM | IC50 (MD-MB-231 cells; MD-MB-231 cells, in the presence of T3 (FIG. 10), read-out: IC50 (proliferation)): 12 µM | IC50 (MD-MB-231 cells; MD-MB-231 cells, in the presence of T4 (FIG. 10), read-out: concentration reducing proliferation by 50%): ~5 µM | IC50 (MCF7 cells; in the presence of T3 (FIG. 10), read-out: IC50 (proliferation)): 12 µM | IC50 (MCF7 cells; in the presence of T4 (FIG. 10), read-out: concentration reducing proliferation by 50%): ~5 µM

N[C@@H](Cc1cc(I)c(Oc2ccc(O)c(I)c2)c(I)c1)C(=O)O [T3, tri-iodothyronine]
effect on proliferation of MD-MB-231 cells (MD-MB-231 cells): statistically significant increase | effect on proliferation of MCF7 cells (MCF7 cells): statistically significant increase | effect on proliferation of BT-474 cells (BT-474 cells): statistically significant increase

N[C@@H](Cc1cc(I)c(Oc2cc(I)c(O)c(I)c2)c(I)c1)C(=O)O [T4, thyroxine]
effect on proliferation of MD-MB-231 cells (MD-MB-231 cells): statistically significant increase | effect on proliferation of MCF7 cells (MCF7 cells): statistically significant increase | effect on proliferation of BT-474 cells (BT-474 cells): statistically significant increase

CCCCc1oc2ccc(NS(C)(=O)=O)cc2c1C(=O)c1ccc(OCCCN(CCCC)CCCC)cc1 [dronedarone]
effect on proliferation (MD-MB-231 cells; MD-MB-231 cells, 10 μM dronedarone in combination with T3): significantly reduced proliferation | effect on proliferation (MD-MB-231 cells; MD-MB-231 cells, 10 μM dronedarone in combination with T4): significantly reduced proliferation | effect on cell proliferation (MD-MB-231 cells; dronedarone alone, without T3/T4 (FIG. 13: MDA-MB-231 cells, 24 hours)): not affected | effect on proliferation (MCF7 cells; 10 μM dronedarone in combination with T3): significantly reduced proliferation | effect on proliferation (MCF7 cells; 10 μM dronedarone in combination with T4): significantly reduced proliferation
